Experimental data: ChEMBL document CHEMBL5113513, “Selective Inhibitors of Medium-Size S1' Pocket Matrix Metalloproteinases: A Stepping Stone of Future Drug Discovery” (J Med Chem, 2022)
In brackets after ≈: the same amount, converted by molar mass.

Tests used:
Stromelysin-1 [1] = biological target: T1, Stromelysin-1 (Homo sapiens, UniProt P08254); experiment: Inhibition of human MMP-3 expressed in Escherichia coli BL21(DE3) using Mca-Pro-Leu-Gly-Leu-Dpa-Ala-Arg-NH2 as substrate preincubated for 30 mins followed by susbstrate addition by photon-counter spectrophotometer analysis
Stromelysin-2 [2] = biological target: T2, Stromelysin-2 (Homo sapiens, UniProt P09238); experiment: Inhibition of human MMP-10 expressed in Escherichia coli BL21(DE3) using Mca-Pro-Leu-Gly-Leu-Dpa-Ala-Arg-NH2 as substrate preincubated for 30 mins followed by susbstrate addition by photon-counter spectrophotometer analysis
[3] = biological target: T3, Macrophage metalloelastase (Homo sapiens, UniProt P39900); experiment: Inhibition of human MMP-12 expressed in Escherichia coli BL21(DE3) using Mca-Pro-Leu-Gly-Leu-Dpa-Ala-Arg-NH2 as substrate preincubated for 30 mins followed by susbstrate addition by photon-counter spectrophotometer analysis
Neutrophil collagenase [4] = biological target: T4, Neutrophil collagenase (Homo sapiens, UniProt P22894); experiment: Inhibition of human MMP-8 expressed in Escherichia coli BL21(DE3) using Mca-Pro-Leu-Gly-Leu-Dpa-Ala-Arg-NH2 as substrate preincubated for 30 mins followed by susbstrate addition by photon-counter spectrophotometer analysis
[5] = biological target: T5, 72 kDa type IV collagenase (Homo sapiens, UniProt P08253); experiment: Inhibition of human MMP-2 expressed in Escherichia coli BL21(DE3) using Mca-Pro-Leu-Gly-Leu-Dpa-Ala-Arg-NH2 as substrate preincubated for 30 mins followed by susbstrate addition by photon-counter spectrophotometer analysis
Interstitial collagenase [6] = biological target: T6, Interstitial collagenase (Homo sapiens, UniProt P03956); experiment: Inhibition of human MMP-1 expressed in Escherichia coli BL21(DE3) using Mca-Pro-Leu-Gly-Leu-Dpa-Ala-Arg-NH2 as substrate preincubated for 30 mins followed by susbstrate addition by photon-counter spectrophotometer analysis
T6 sequence (P03956 whole entry): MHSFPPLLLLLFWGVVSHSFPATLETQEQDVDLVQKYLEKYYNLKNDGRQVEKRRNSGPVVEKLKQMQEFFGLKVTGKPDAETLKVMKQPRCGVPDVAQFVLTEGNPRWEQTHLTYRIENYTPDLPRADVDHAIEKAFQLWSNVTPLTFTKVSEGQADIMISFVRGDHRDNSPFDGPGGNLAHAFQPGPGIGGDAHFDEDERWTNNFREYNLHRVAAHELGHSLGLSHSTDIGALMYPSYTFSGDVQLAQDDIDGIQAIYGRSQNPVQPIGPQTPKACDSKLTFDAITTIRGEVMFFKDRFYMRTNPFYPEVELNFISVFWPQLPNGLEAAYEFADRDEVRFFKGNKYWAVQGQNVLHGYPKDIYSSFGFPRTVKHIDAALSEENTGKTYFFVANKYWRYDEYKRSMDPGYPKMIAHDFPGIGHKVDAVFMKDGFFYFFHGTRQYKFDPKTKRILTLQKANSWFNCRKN

[7] = biological target: T7, Matrix metalloproteinase-14 (Homo sapiens, UniProt P50281); experiment: Inhibition of human MMP-14 expressed in Escherichia coli BL21(DE3) using Mca-Pro-Leu-Gly-Leu-Dpa-Ala-Arg-NH2 as substrate preincubated for 30 mins followed by susbstrate addition by photon-counter spectrophotometer analysis
Collagenase 3 [8] = biological target: T8, Collagenase 3 (Homo sapiens, UniProt P45452); experiment: Inhibition of human MMP-13 expressed in Escherichia coli BL21(DE3) using Mca-Pro-Leu-Gly-Leu-Dpa-Ala-Arg-NH2 as substrate preincubated for 30 mins followed by susbstrate addition by photon-counter spectrophotometer analysis
[9] = biological target: T9, Matrix metalloproteinase-9 (Homo sapiens, UniProt P14780); experiment: Inhibition of human MMP-9 expressed in Escherichia coli BL21(DE3) using Mca-Pro-Leu-Gly-Leu-Dpa-Ala-Arg-NH2 as substrate preincubated for 30 mins followed by susbstrate addition by photon-counter spectrophotometer analysis
Matrilysin [10] = biological target: T10, Matrilysin (Homo sapiens, UniProt P09237); experiment: Inhibition of human MMP-7 expressed in Escherichia coli BL21(DE3) using Mca-Pro-Leu-Gly-Leu-Dpa-Ala-Arg-NH2 as substrate preincubated for 30 mins followed by susbstrate addition by photon-counter spectrophotometer analysis
T10 sequence (P09237 whole entry): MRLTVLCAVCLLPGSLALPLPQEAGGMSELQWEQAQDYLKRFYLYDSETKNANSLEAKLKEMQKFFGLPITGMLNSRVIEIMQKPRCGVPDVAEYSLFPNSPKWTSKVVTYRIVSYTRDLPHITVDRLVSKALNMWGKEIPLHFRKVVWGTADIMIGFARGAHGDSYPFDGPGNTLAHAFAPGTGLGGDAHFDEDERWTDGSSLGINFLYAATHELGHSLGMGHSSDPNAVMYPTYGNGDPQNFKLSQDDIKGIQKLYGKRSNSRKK

[11] = biological target: T7, Matrix metalloproteinase-14; experiment: Inhibition of MMP-14 (unknown origin)
Neutrophil collagenase [12] = biological target: T4, Neutrophil collagenase; experiment: Inhibition of MMP-8 (unknown origin)
Stromelysin-1 [13] = biological target: T1, Stromelysin-1; experiment: Inhibition of MMP-3 (unknown origin)
[14] = biological target: T9, Matrix metalloproteinase-9; experiment: Inhibition of MMP-9 (unknown origin) catalytic activity using Ac-PLG-[2-mercapto-4-methylpentanoyl]-LG-OC2H5 as substrate and measured upto 30 mins by microplate reader analysis
Collagenase 3 [15] = biological target: T8, Collagenase 3
Description: Inhibition of MMP-13 (unknown origin)

Matrilysin [16] = biological target: T10, Matrilysin; experiment: Inhibition of MMP-7 (unknown origin)
[17] = biological target: T3, Macrophage metalloelastase; experiment: Inhibition of MMP-12 (unknown origin)
[18] = Aqueous solubility of compound by UV spectroscopy; format: physicochemical
Interstitial collagenase [19] = biological target: T6, Interstitial collagenase; experiment: Inhibition of MMP-1 (unknown origin)
[20] = biological target: T5, 72 kDa type IV collagenase; experiment: Inhibition of MMP-2 (unknown origin) catalytic activity using Ac-PLG-[2-mercapto-4-methylpentanoyl]-LG-OC2H5 as substrate and measured upto 30 mins by microplate reader analysis
HT-1080 = experiment: Inhibition of cell invasion in human HT-1080 for 22 hrs by CyQuantGR dye based fluorometric analysis; format: functional
Stromelysin-2 [21] = biological target: T2, Stromelysin-2; experiment: Inhibition of MMP-10 (unknown origin)
[22] = biological target: T3, Macrophage metalloelastase; experiment: Inhibition of recombinant human MMP-12 by ELISA
Mus musculus [23] = experiment: Antitumor activity against SCID mouse with human tumor cell orthotopic implantation assessed as reduction in tumor growth at 50 mg/kg, ip for 6 weeks; format: functional; set-up: scale not given: the % may be the effect or the level left
Collagenase 3 [24] = biological target: T8, Collagenase 3; experiment: Inhibition of recombinant human MMP-13 using peptide substrate by ELISA
[25] = Half life in Sprague-Dawley rats at 150 mg/kg, ip; format: ADME, organism-based; conditions: rat, in vivo
Stromelysin-1 [26] = biological target: T1, Stromelysin-1; experiment: Inhibition of recombinant human MMP-3 using peptide substrate by ELISA
Mus musculus [27] = experiment: Antimetastatic activity in SCID mouse with human tumor cell orthotopic implantation assessed as reduction in tumor metastasis at 50 mg/kg, ip for 6 weeks; format: functional; set-up: scale not given: the % may be the effect or the level left
Neutrophil collagenase [28] = biological target: T4, Neutrophil collagenase; experiment: Inhibition of recombinant human MMP-8 using peptide substrate by ELISA
[29] = Half life in Sprague-Dawley rats at 50 mg/kg, iv; format: ADME, organism-based; conditions: rat, in vivo
B16-F10 [30] = experiment: Inhibition of cell invasion in mouse B16-F10 cells at 100 uM by Matrigel invasion assay; format: functional
[31] = biological target: T5, 72 kDa type IV collagenase; experiment: Inhibition of recombinant human MMP-2 using peptide substrate by ELISA
Interstitial collagenase [32] = biological target: T6, Interstitial collagenase; experiment: Inhibition of recombinant human MMP-1 using peptide substrate by ELISA
[33] = biological target: T3, Macrophage metalloelastase; experiment: Inhibition of recombinant human MMP-12 using peptide substrate by ELISA
B16-F10 [34] = experiment: Antimetastatic activity in mouse B16-F10 xenografted C57BL mouse melanoma model assessed as reduction in metastasis loci at 12.5 to 50 mg/kg, ip; format: functional; set-up: scale not given: the % may be the effect or the level left; conditions: dose 12.5-50 mg/kg
[35] = Inhibition of recombinant human TACE using peptide substrate by ELISA
[36] = biological target: T9, Matrix metalloproteinase-9; experiment: Inhibition of recombinant human MMP-9 using peptide substrate by ELISA
[37] = Half life in Sprague-Dawley rats at 150 mg/kg, po; format: ADME, organism-based; conditions: rat, in vivo
[38] = biological target: T9, Matrix metalloproteinase-9; experiment: Inhibition of MMP-9 (unknown origin) using Mca-Pro-Leu-Gly-Leu-Dpa-Ala-Arg-NH2 as substrate preincubated for 30 mins followed by substrate addition for 2 to 4 hrs by fluorimetric assay
Neutrophil collagenase [39] = biological target: T4, Neutrophil collagenase; experiment: Inhibition of MMP-8 (unknown origin) using Mca-Pro-Leu-Gly-Leu-Dpa-Ala-Arg-NH2 as substrate preincubated for 30 mins followed by substrate addition for 2 to 4 hrs by fluorimetric assay
[40] = biological target: T7, Matrix metalloproteinase-14; experiment: Inhibition of MMP-14 (unknown origin) using Mca-Pro-Leu-Gly-Leu-Dpa-Ala-Arg-NH2 as substrate preincubated for 30 mins followed by substrate addition for 2 to 4 hrs by fluorimetric assay
[41] = Plasma concentration in cynomolgus monkey at 3 mg/kg, iv measured upto 3 hrs; format: ADME, organism-based, Macaca fascicularis
[42] = Half life in cynomolgus monkey at 3 mg/kg, iv; format: ADME, organism-based, Macaca fascicularis; conditions: in vivo
[43] = Metabolic stability in cynomolgus monkey assessed as clearance at 3 mg/kg, iv; format: ADME, organism-based, Macaca fascicularis; conditions: in vivo
B16-F10 [44] = experiment: Antitumor activity in mouse B16-F10 xenografted C57BL mouse lung metastasis model assessed as increase in life span measured per hour at 100 mg/kg, ip bid; format: functional
[45] = Metabolic stability in rat assessed as clearance at 3 mg/kg, iv; format: ADME, organism-based; conditions: in vivo
[46] = Oral bioavailability in cynomolgus monkey at 3 mg/kg; format: ADME, organism-based, Macaca fascicularis; conditions: in vivo
[47] = Oral bioavailability in rat at 3 mg/kg; format: ADME, organism-based; conditions: in vivo
[48] = Oral bioavailability in dog at 3 mg/kg; format: ADME, organism-based, Canis lupus familiaris; conditions: in vivo
[49] = Plasma concentration in dog at 3 mg/kg, iv measured upto 3 hrs; format: ADME, organism-based, Canis lupus familiaris
[50] = Metabolic stability in dog assessed as clearance at 3 mg/kg, iv; format: ADME, organism-based, Canis lupus familiaris; conditions: in vivo
[51] = Plasma concentration in rat at 3 mg/kg, iv measured upto 3 hrs; format: ADME, organism-based
[52] = Half life in rat at 3 mg/kg, iv; format: ADME, organism-based; conditions: in vivo

T9 sequence (P14780 whole entry): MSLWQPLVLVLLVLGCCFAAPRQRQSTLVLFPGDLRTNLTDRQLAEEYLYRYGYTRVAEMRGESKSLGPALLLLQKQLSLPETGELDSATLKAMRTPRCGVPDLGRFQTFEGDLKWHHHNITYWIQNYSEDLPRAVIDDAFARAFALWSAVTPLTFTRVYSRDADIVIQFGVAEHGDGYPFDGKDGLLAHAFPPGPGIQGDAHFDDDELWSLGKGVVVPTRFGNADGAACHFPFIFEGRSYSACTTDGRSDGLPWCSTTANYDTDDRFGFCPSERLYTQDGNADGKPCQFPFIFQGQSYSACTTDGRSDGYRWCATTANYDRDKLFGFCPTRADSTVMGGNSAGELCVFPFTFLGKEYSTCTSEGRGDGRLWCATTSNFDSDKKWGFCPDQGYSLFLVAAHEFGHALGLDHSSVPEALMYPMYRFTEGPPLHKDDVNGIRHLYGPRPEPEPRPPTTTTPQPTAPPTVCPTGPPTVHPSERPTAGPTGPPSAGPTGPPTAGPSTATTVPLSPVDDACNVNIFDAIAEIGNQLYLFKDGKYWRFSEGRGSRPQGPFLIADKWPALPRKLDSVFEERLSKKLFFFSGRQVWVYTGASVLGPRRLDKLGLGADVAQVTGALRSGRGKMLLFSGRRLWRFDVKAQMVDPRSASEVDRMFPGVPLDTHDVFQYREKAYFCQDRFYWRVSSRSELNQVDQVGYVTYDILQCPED
T3 sequence (P39900 whole entry): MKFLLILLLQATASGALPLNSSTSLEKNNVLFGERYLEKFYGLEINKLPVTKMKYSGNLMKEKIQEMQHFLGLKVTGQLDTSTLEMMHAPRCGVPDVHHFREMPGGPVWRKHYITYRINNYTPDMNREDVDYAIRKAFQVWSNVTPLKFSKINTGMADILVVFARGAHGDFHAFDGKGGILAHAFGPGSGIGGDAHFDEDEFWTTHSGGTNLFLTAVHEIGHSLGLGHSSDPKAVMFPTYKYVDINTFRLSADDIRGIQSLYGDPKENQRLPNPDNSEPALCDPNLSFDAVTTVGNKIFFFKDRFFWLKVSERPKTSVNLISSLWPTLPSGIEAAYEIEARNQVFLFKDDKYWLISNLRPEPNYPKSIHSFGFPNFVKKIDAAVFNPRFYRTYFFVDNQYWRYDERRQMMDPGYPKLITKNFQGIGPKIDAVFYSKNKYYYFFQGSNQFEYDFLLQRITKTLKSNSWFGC
T4 sequence (P22894 whole entry): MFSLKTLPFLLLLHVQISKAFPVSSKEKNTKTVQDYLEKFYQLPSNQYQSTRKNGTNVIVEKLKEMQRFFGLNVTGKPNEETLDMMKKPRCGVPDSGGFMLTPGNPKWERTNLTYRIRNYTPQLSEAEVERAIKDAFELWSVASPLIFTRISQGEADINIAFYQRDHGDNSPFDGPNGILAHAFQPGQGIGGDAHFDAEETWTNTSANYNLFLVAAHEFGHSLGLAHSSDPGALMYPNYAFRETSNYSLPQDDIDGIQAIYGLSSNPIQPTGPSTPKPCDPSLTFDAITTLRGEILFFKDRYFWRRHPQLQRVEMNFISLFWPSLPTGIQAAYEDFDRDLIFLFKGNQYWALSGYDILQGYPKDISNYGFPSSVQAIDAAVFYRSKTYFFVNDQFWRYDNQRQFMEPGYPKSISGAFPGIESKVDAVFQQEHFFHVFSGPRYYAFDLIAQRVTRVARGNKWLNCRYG
T5 sequence (P08253 whole entry): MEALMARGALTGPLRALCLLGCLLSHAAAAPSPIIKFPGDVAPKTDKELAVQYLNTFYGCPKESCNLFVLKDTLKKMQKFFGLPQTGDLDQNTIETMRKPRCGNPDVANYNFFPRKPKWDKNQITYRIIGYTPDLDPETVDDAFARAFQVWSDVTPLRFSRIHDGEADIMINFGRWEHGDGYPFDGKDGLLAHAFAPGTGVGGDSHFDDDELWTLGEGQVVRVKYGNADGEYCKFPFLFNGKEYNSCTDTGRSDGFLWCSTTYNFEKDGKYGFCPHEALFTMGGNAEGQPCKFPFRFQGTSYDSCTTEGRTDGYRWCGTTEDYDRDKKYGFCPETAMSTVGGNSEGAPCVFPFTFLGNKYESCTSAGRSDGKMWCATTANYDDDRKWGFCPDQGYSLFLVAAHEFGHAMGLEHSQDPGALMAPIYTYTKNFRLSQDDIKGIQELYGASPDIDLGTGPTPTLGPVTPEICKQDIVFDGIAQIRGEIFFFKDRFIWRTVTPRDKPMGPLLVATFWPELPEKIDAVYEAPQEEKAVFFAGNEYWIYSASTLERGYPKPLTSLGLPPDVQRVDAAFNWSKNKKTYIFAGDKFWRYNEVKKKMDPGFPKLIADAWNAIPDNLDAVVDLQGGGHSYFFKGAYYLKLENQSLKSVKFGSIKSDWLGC
T1 sequence (P08254 whole entry): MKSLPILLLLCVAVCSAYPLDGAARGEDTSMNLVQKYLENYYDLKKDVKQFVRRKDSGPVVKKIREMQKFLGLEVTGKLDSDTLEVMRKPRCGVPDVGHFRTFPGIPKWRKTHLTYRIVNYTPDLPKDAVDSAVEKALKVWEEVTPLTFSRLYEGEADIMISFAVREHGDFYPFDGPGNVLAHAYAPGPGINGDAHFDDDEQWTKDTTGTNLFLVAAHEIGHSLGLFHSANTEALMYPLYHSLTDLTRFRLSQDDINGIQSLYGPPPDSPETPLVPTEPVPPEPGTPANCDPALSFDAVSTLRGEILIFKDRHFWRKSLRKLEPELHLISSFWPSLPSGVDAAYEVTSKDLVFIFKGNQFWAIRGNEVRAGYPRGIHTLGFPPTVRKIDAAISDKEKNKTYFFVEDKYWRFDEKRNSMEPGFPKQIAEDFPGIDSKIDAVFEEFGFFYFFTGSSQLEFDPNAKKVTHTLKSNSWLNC
T2 sequence (P09238 whole entry): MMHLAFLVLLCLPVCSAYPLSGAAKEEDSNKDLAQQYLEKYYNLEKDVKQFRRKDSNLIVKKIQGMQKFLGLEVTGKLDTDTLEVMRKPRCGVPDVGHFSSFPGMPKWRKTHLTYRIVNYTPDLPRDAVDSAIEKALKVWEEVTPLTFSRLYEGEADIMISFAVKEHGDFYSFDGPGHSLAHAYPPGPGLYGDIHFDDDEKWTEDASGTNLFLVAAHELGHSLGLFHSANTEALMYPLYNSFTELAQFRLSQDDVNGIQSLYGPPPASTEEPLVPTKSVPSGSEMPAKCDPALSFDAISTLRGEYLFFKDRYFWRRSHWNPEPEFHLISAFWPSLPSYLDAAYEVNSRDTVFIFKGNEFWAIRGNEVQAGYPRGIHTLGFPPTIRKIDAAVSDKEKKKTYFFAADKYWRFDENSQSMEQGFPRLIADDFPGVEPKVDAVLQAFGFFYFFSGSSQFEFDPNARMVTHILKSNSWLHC

SMILES: NC(=O)[C@@H](CCC(=O)O)NC(=O)[C@@H](CCC(=O)O)NC(=O)[C@@H](Cc1cc(-c2ccc(-c3cccc(Cl)c3)cc2)no1)CP(=O)(O)c1ccc(Br)cc1
- Ki (Stromelysin-1 [1]): 40 nM
- Ki (Stromelysin-2 [2]): 18400 nM
- Ki [3]: 0.19 nM
- Ki (Neutrophil collagenase [4]): 271 nM
- Ki [5]: 192 nM
- Ki (Interstitial collagenase [6]): 67000 nM
- Ki [7]: 140 nM
- Ki (Collagenase 3 [8]): 49 nM
- Ki [9]: 1260 nM
- Ki (Matrilysin [10]): 626 nM

SMILES: CN(C)c1ccc(-c2cn(-c3ccc(S(=O)(=O)C4(C(=O)NO)CCOCC4)cc3)nn2)cc1
- IC50 [11]: 286 nM
- IC50 (Neutrophil collagenase [12]): 202 nM
- IC50 (Stromelysin-1 [13]): 50.5 nM
- IC50 [14]: 43.9 nM
- IC50 (Collagenase 3 [15]): 3.2 nM
- IC50 (Matrilysin [16]): 825 nM
- IC50 [17]: 4.8 nM
- solubility [18]: 996 µg/mL (≈ 2110 µM)
- IC50 (Interstitial collagenase [19]): > 1000 nM
- IC50 [20]: 1.7 nM
- inhibition (INH) (HT-1080): 37%
- IC50 (Stromelysin-2 [21]): 44.5 nM

SMILES: CC(C)CC(C(=O)NC(c1noc(Sc2ccccc2)n1)C(C)(C)C)C(O)C(=O)NO (stereo not drawn)
- IC50 [22]: 20 nM

SMILES: NC1CCCCC1NC(=O)P(=O)(O)O (stereo not drawn)
- Activity (Mus musculus [23]): 60%
- IC50 (Collagenase 3 [24]): > 100 nM
- half-life [25]: 1.8 h
- IC50 (Stromelysin-1 [26]): > 100 nM
- Activity (Mus musculus [27]): 90%
- IC50 (Neutrophil collagenase [28]): > 100 nM
- half-life [29]: 0.313 h
- inhibition at 100 µM (B16-F10 [30]): 90%
- IC50 [31]: 4 nM
- IC50 (Interstitial collagenase [32]): > 100 nM
- IC50 [33]: > 100 nM
- Activity (B16-F10 [34]): 50%
- IC50 [35]: > 100 nM
- IC50 [36]: 20 nM
- half-life [37]: 2.1 h

SMILES: O=P(O)(O)C(NS(=O)(=O)c1ccc(-c2ccc(Cl)cc2)cc1)P(=O)(O)O
- IC50 [38]: > 1000 nM
- IC50 (Neutrophil collagenase [39]): 320 nM
- IC50 [40]: > 1000 nM

SMILES: CC1(C)NC(=O)N(C[C@@H](COc2ccc(-c3ccc(OC(F)(F)F)cc3)cc2)N(O)C=O)C1=O
- concentration at 3 h [41]: 1500 ng/mL
- half-life [42]: 21 h
- clearance [43]: 1.13 mL/min/kg
- Activity (B16-F10 [44]): 46%
- clearance [45]: 2 mL/min/kg
- bioavailability [46]: 84%
- bioavailability [47]: 84%
- bioavailability [48]: 84%
- concentration at 3 h [49]: 1500 ng/mL
- clearance [50]: 1.83 mL/min/kg
- concentration at 3 h [51]: 1500 ng/mL
- half-life [52]: 8 h
